Measured values from PubChem BioAssay (NCI).
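Grown in 96-well plates, cells were treated for 48 hours with each compound at five concentrations. Insufficient inhibition: endpoint recorded as highest concentration tested. GI50 is the concentration that inhibits growth by half. Definition used: TGI = concentration required for complete inhibition of growth.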

Columns and labels:
Experiment in all cases: NCI tumour cell line growth inhibition, 48 h
[1] = system: UACC-62 melanoma
[2] = system: SW-620 colon
[3] = system: HCT-15 colon
[4] = system: M14 melanoma
[5] = system: NCI-H460 lung
[6] = system: HS 578T breast
[7] = system: RPMI-8226 leukemia
[8] = system: K-562 leukemia
[9] = system: SK-MEL-28 melanoma
[10] = system: UACC-257 melanoma

| Compound | GI50 [1] [µM] | TGI [1] [µM] | GI50 [2] [µM] | TGI [2] [µM] | GI50 [3] [µM] | TGI [3] [µM] | GI50 [4] [µM] | TGI [4] [µM] | GI50 [5] [µM] | TGI [5] [µM] | GI50 [6] [µM] | TGI [6] [µM] | GI50 [7] [µM] | TGI [7] [µM] | GI50 [8] [µM] | TGI [8] [µM] | GI50 [9] [µM] | TGI [9] [µM] | TGI [10] [µM] |
| --- | --- | --- | --- | --- | --- | --- | --- | --- | --- | --- | --- | --- | --- | --- | --- | --- | --- | --- | --- |
| COc1ccc(-n2cc(-c3cc(OC)c(OC)c(OC)c3)nc2SCc2cccc(C#N)c2)cc1OC | > 100 | > 100 | 34 | > 100 | > 100 | > 100 | > 100 | > 100 | > 100 | > 100 | 62.2 | > 100 | > 100 | > 100 | 56.9 | > 100 | 16.8 | > 100 | – |
| C=CC[P@]1(=O)O[C@H](c2ccccc2)C(C)N1C(C)C (some centres not stated) | – | > 100 | – | > 100 | – | > 100 | – | > 100 | – | > 100 | – | – | – | > 100 | – | > 100 | – | > 100 | > 100 |
| O=C1NC(c2ccccc2)(c2ccccc2)C(=O)N1CCCCCCN1C(=O)NC(c2ccccc2)(c2ccccc2)C1=O | – | > 100 | – | > 100 | – | > 100 | – | > 100 | – | > 100 | – | – | – | > 100 | – | > 100 | – | 89.2 | > 100 |
| O=S(=O)(F)Cc1ccccc1 | – | > 100 | – | > 100 | – | > 100 | – | > 100 | – | > 100 | – | – | – | > 100 | – | > 100 | – | > 100 | > 100 |
| COC1CCCc2c(OC(C)=O)ccc(OC(C)=O)c21 (configuration not stated) | – | > 100 | – | > 100 | – | > 100 | – | > 100 | – | – | – | – | – | – | – | > 100 | – | > 100 | – |
| COc1ccc2c(=O)c(-c3cc(OC)c(OC)cc3OC)coc2c1 | – | > 100 | – | > 100 | – | > 100 | – | > 100 | – | > 100 | – | – | – | > 40.3 | – | > 100 | – | > 100 | > 100 |
| COc1ccc(-c2cc(=O)c3c(O)c(O)c(OC)cc3o2)cc1O | – | > 100 | – | > 100 | – | > 100 | – | > 100 | – | > 100 | – | – | – | > 100 | – | > 100 | – | > 100 | > 100 |
| Cc1cccc(NC(=O)c2c(N)[n+]([O-])c3ccccc3[n+]2[O-])c1 | – | – | – | 21.4 | – | – | – | 24.9 | – | 28.1 | – | – | – | – | – | > 100 | – | 20.7 | 24.4 |
| O=NNc1ccc(-c2ccccc2)cn1 | – | 31.3 | – | > 77 | – | 56.1 | – | 39.2 | – | 42.9 | – | > 58.9 | – | – | – | > 100 | – | > 80.1 | > 90.6 |
| CC(C)(C)OC(=O)N(CCCCN(CCCn1c2c(c3ccccc3c1=O)C(=O)c1ccccc1-2)C(=O)OC(C)(C)C)CCCn1c2c(c3ccccc3c1=O)C(=O)c1ccccc1-2 | 92.8 | > 100 | 32.3 | > 100 | 23.4 | > 100 | 31.3 | > 100 | 6.32 | 19.3 | 13.1 | 59.6 | 17.9 | 69.1 | 90.5 | > 100 | > 100 | > 100 | – |
